pKi: −log10 of the molar value.
Assays:
[1] = biological target: Serine protease 1 (Rattus norvegicus, UniProt P00762); assay: Enzyme Assay: Inhibition constant of the compound against Trypsin
[2] = biological target: Plasminogen (Rattus norvegicus, UniProt Q01177); assay: Enzyme Assay: Inhibition constant of the compound against Plasmin
[3] = biological target: Prothrombin (Rattus norvegicus, UniProt P18292); assay: Enzyme Assay: Inhibition constant of the compound against Thrombin

Chain of Serine protease 1 (P00762 whole entry): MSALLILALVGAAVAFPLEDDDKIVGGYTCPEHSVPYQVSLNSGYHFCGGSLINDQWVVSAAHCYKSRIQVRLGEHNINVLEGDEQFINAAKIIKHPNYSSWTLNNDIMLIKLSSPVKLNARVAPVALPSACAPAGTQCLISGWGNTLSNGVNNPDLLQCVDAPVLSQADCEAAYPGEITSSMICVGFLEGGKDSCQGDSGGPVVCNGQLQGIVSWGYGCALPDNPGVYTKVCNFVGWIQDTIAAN
Chain of Plasminogen (Q01177 97-581 limits assumed): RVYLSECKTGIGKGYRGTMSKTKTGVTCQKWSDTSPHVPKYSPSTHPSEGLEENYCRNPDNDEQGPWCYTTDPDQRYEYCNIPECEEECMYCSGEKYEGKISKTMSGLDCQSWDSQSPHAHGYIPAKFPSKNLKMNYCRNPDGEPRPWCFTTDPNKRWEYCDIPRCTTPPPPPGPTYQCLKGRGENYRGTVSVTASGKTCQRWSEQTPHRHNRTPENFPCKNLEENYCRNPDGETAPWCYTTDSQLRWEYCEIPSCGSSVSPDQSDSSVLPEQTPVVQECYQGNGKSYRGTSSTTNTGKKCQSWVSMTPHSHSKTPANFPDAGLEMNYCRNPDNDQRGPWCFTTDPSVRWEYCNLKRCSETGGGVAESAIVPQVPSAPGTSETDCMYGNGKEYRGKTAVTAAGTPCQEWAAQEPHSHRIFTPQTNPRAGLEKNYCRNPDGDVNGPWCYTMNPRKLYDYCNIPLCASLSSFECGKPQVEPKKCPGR
Chain of Plasminogen (Q01177 582-812 limits assumed): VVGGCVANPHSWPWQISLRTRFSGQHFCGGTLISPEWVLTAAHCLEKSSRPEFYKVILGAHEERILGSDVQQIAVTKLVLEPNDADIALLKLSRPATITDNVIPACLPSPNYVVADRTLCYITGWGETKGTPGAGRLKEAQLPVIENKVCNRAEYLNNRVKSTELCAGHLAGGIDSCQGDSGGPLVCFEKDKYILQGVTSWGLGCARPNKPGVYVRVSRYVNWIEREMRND

SMILES	pKi [1]	pKi [2]	pKi [3]
N=C(N)c1ccc(CNC(=O)[C@H](CCCN=C(N)N)NC(=O)[C@@H](CO)NS(=O)(=O)Cc2ccccc2)cc1	8.15		
N=C(N)c1ccc(CNC(=O)[C@H](CCCCN)NC(=O)[C@@H](CO)NS(=O)(=O)Cc2ccccc2)cc1	8.17		
N=C(N)c1ccc(CNC(=O)CNC(=O)[C@@H](CO)NS(=O)(=O)Cc2ccc(CN)cc2)cc1	6.55		
N=C(N)c1ccc(CNC(=O)CNC(=O)[C@@H](CO)NS(=O)(=O)Cc2ccncc2)cc1	6.39	4.43	5.80
N=C(N)c1ccc(CNC(=O)CNC(=O)[C@@H](CO)NS(=O)(=O)Cc2cccc(C(=O)O)c2)cc1	6.14		
